According to patent publication EP4803517A1, “PROTEIN TRANSLATION INHIBITOR” (Duality Biologics (Shanghai) Co., Ltd., priority 2023, dated 2025):
Read-outs that look alike come from different tables or passages of the source.

Assays:
Test in all cases: Inhibition of in vitro proliferation of tumor cells (CTG, CellTiter-Glo)
Type in all cases: cell-based
MKN-45 = settings: Homo sapiens, 120 h; racemates; MKN-45 cells; 5 days of culture; CTG reagent; read-out: Proliferation inhibitory activity IC50 (nM) MKN-45
Experimental: (§1) Assay objective: To detect the inhibitory effects of the drug compounds on tumor cell proliferation, for example, the inhibitory activity thereof on the in vitro proliferation of NCI-H716, NCI-H1975, NCI-H1373, NCI-H647, NCI-H520, BT474, DLD-1, NCI-N87, NUGC-4, SNU-423, MKN-45, SK-OV-3, OVCAR3, Ls174T, HCC1954, and ES2 tumor cells. The cells were treated with the compounds at different concentrations in vitro. After 5 days of culture, the proliferation of the cells was detected using the CTG (CellTiter-Glo® Luminescent Cell Viability Assay, Promega, Cat. No. G7558) reagent, and the in vitro activity of the compounds was evaluated based on the IC50 value. 1. Cell preparation: NCI-H716, NCI-H1975, NCI-H1373, NCI-H647, NCI-H520, BT474, DLD-1, NCI-N87, NUGC-4, SNU-423, MKN-45, SK-OV-3, OVCAR3, Ls174T, HCC1954, and ES2 cells in the logarithmic phase were each taken, washed once with PBS, and then digested with 2-3 mL of trypsin for 2-3 min. After the cells were digested completely, 10-15 mL of a cell culture medium was added to elute the digested cells. The eluate was centrifuged at 1000 rpm for 5 min, and the supernatant was discarded. Subsequently, the resulting cells were resuspended in 10-20 mL of the cell culture medium to prepare a single-cell suspension. 2. Cell plating: The NCI-H716, NCI-H1975, NCI-H1373, NCI-H647, NCI-H520, NCI-N87, BT474, DLD-1, NCI-N87, NUGC-4, SNU-423, MKN-45, SK-OV-3, OVCAR3, Ls174T, HCC1954, and ES2 single-cell suspensions were each well mixed and adjusted to a viable cell density of 6 × 10^4 cells/mL with the cell culture medium. The density-adjusted cell suspensions were each well mixed and added to a 96-well cell culture plate at 50 µL/well. The culture plate was incubated in an incubator overnight (37 °C, 5% CO2). 3. Compound preparation: Each compound was dissolved in DMSO to prepare a stock solution with an initial concentration of 10 mM. There were 6 concentrations in total for the small molecule compound: 1000 nM, 333 nM, 111 nM, 37.03 nM, 12.34 nM, and 4.11 nM. 4. Sample addition: The prepared test samples at different concentrations were added to the culture plate, with two duplicate wells set for each sample. The culture plate was incubated in the incubator for 5 days (37 °C, 5% CO2). 5. Color development: The 96-well cell culture plate was taken out, and 50 µL of the CTG reagent was added to each well. The plate was then incubated at room temperature for 10 min. 6. Plate reading: The 96-well cell culture plate was taken out and placed in a microplate reader, and the chemiluminescence was measured using the microplate reader. 7. Data analysis: The cell viability was calculated according to the formula: (Lumtest drug - Lumblank control)/(Lumsolvent blank control - Lumblank control) × 100%. Using a nonlinear regression model in the GraphPad Prism software, a sigmoidal dose-survival rate curve was plotted, and the IC50 values were calculated. Table 2. IC50 values for the inhibition of the in vitro proliferation of tumor cells by the racemates of the small molecule compounds of the present application

DLD-1 = settings: Homo sapiens, 120 h, DLD-1 cells, 5 days of culture, CTG reagent, read-out: Proliferation inhibitory activity IC50 (nM) DLD-1
Experimental: as §1

Ls174T = settings: Homo sapiens, 120 h, racemates, 5 days of culture, CTG reagent, read-out: Proliferation inhibitory activity IC50 (nM) Ls174T
Experimental: as §1

BT474 = settings: Homo sapiens, BT-474, 120 h, 5 days of culture, CTG reagent, read-out: Proliferation inhibitory activity IC50 (nM) BT474
Experimental: as §1

HCC1954 = settings: Homo sapiens, 120 h, racemates, 5 days of culture, CTG reagent, read-out: Proliferation inhibitory activity IC50 (nM) HCC1954
Experimental: as §1

NCI-N87 = settings: Homo sapiens, 120 h, racemates, 5 days of culture, CTG reagent, read-out: Proliferation inhibitory activity IC50 (nM) NCI-N87
Experimental: as §1

SNU-423 = settings: Homo sapiens, 120 h; racemates; SNU-423 cells; 5 days of culture; CTG reagent; read-out: Proliferation inhibitory activity IC50 (nM) SNU-423
Experimental: as §1

NUGC-4 = settings: Homo sapiens, 120 h; racemates; NUGC-4 cells; 5 days of culture; CTG reagent; read-out: Proliferation inhibitory activity IC50 (nM) NUGC-4
Experimental: as §1

SK-OV-3 = settings: Homo sapiens, 120 h; racemates; SK-OV-3 cells; 5 days of culture; CTG reagent; read-out: Proliferation inhibitory activity IC50 (nM) SK-OV-3
Experimental: as §1

[1] = Table 3, chirally resolved compounds

## COc1cc(-c2ncco2)cc2c1[C@]1(O)[C@H](O)[C@H](C(=O)N(C)OC)[C@@H](c3cccc(O)c3)[C@]1(c1ccc(C#N)cc1)O2 (racemic) [Racemate of compound 15]
MKN-45
  IC50: 2.65 nM

## COc1ccc([C@@]23Oc4cc(-c5ncco5)cc(OC)c4[C@]2(O)[C@@H](CNC(=O)COCCO)C[C@H]3c2ccccc2)cc1 (racemic) [Racemate of compound 91]
DLD-1; racemates
  IC50: 2.16 nM

## COc1cc(-c2ncco2)cc2c1[C@]1(O)[C@H](O)[C@H](C(=O)N3CC(O)C3)[C@@H](c3ccccc3)[C@]1(c1ccc(C#N)cc1)O2 (racemic) [Racemate of compound 16]
MKN-45
  IC50: 2.34 nM

## COc1cc(-c2ncc(C(F)(F)F)cn2)cc2c1[C@]1(O)[C@H](O)[C@H](C(=O)N(C)OC)[C@@H](c3cccc(N)c3)[C@]1(c1ccc(C#N)cc1)O2 (racemic) [Racemate of compound 32]
Ls174T
  IC50: 5.45 nM

## COc1ccc([C@@]23Oc4cc(-c5ncco5)cc(OC)c4[C@]2(O)[C@@H](N(C)C)C[C@H]3c2cccc(N)c2)cc1 (single isomer, unassigned) [Compound 98]
DLD-1; [1]
  IC50: < 10 nM
BT474; [1]
  IC50: < 10 nM

## COc1cc(-c2ncco2)cc2c1[C@]1(O)[C@H](O)[C@H](C(=O)N(C)OC)[C@@H](c3cccc(N)c3)[C@]1(c1ccc(C#N)cc1)O2 [Compound 4]
DLD-1; [1]
  IC50: < 10 nM
BT474; [1]
  IC50: < 10 nM

## COc1ccc([C@@]23Oc4cc(OC)cc(OC)c4[C@]2(O)[C@H](O)[C@H](C(=O)N(C)C)[C@H]3c2ccccc2)cc1 [Rocaglamide, reference compound]
MKN-45
  IC50: 5.75 nM
HCC1954
  IC50: 2.66 nM
NCI-N87
  IC50: 9.32 nM
DLD-1; racemates
  IC50: 8.19 nM
SNU-423
  IC50: 14.4 nM
BT474; racemates
  IC50: 5.49 nM
Ls174T
  IC50: 6.08 nM
NUGC-4
  IC50: 8.25 nM
SK-OV-3
  IC50: 8.52 nM

## COc1ccc([C@@]23Oc4cc(-c5ncco5)cc(OC)c4[C@]2(O)[C@@H](CNC(=O)CN(C)C)C[C@H]3c2cccc(N)c2)cc1 (single isomer, unassigned) [Compound 93]
DLD-1; [1]
  IC50: < 10 nM
BT474; [1]
  IC50: < 10 nM

## COc1ccc([C@@]23Oc4cc(-c5ncco5)cc(OC)c4[C@]2(O)[C@H](O)[C@H](C(=O)N2CC(O)C2)[C@H]3c2ccccc2)cc1 (racemic) [Racemate of compound 48]
BT474; racemates
  IC50: 2.25 nM

## COC(=O)[C@H]1[C@@H](O)[C@@]2(O)c3c(OC)cc(-c4cnco4)cc3O[C@@]2(c2ccc(C#N)cc2)[C@@H]1c1cccc(N)c1 (racemic) [Racemate of compound 3]
NCI-N87
  IC50: 3.63 nM
SNU-423
  IC50: 8.18 nM
NUGC-4
  IC50: 3.51 nM

## COC(=O)[C@H]1[C@@H](O)[C@@]2(O)c3c(OC)cc(-c4ncco4)cc3O[C@@]2(c2ccc(C#N)cc2)[C@@H]1c1cccc(N)c1 (racemic) [Racemate of compound 2]
NCI-N87
  IC50: 2.07 nM
SNU-423
  IC50: 3.67 nM
BT474; racemates
  IC50: 3.33 nM
NUGC-4
  IC50: 1.98 nM
SK-OV-3
  IC50: 2.05 nM

## COc1ccc([C@@]23Oc4cc(-c5ncco5)cc(OC)c4[C@]2(O)[C@@H](CNC(=O)[C@H](CO)N(C)C)C[C@H]3c2ccccc2)cc1 (racemic) [Racemate of compound 89]
DLD-1; racemates
  IC50: 1.35 nM

## COc1cnc(-c2cc(OC)c3c(c2)O[C@@]2(c4ccc(C#N)cc4)[C@H](c4cccc(N)c4)[C@@H](C(=O)N(C)OC)[C@@H](O)[C@@]32O)cn1 (racemic) [Racemate of compound 43]
MKN-45
  IC50: 2 nM

## COc1ccc([C@@]23Oc4cc(-c5ncco5)ccc4[C@]2(O)[C@H](O)[C@H](C(=O)N(C)C)[C@H]3c2ccccc2)cc1 (racemic) [Racemate of compound 57]
DLD-1; racemates
  IC50: 2.35 nM

## COc1ccc([C@@]23Oc4cc(-c5ncco5)cc(OC)c4[C@]2(O)[C@@H](CNC(=O)NO)C[C@H]3c2ccccc2)cc1 (racemic) [Racemate of compound 87]
DLD-1; racemates
  IC50: 2.84 nM

## COc1cc(-c2cscn2)cc2c1[C@]1(O)[C@H](O)[C@H](C(=O)N(C)C)[C@@H](c3cccc(N)c3)[C@]1(c1ccc(C#N)cc1)O2 (racemic) [Racemate of compound 111]
HCC1954
  IC50: 2.98 nM

## COc1ccc([C@@]23Oc4cc(-c5ncco5)cc(OC)c4[C@]2(O)[C@@H](CN)[C@H](CO)[C@H]3c2ccccc2)cc1 (racemic) [Racemate of compound 9]
MKN-45
  IC50: 0.695 nM
BT474; racemates
  IC50: 0.829 nM

## COc1ccc([C@@]23Oc4cc(-c5ncco5)cc(OC)c4[C@]2(O)[C@@H](CNC(=O)CN(C)C)C[C@H]3c2cccc(N)c2)cc1 (racemic) [Racemate of compound 93]
HCC1954
  IC50: 1.5 nM

## COc1cnc(-c2cc(OC)c3c(c2)O[C@@]2(c4ccc(C#N)cc4)[C@H](c4cccc(N)c4)[C@@H](C(=O)N(C)OC)[C@@H](O)[C@@]32O)nc1 (racemic) [Racemate of compound 31]
MKN-45
  IC50: 1.32 nM

## COc1cc(-c2ncco2)cc2c1[C@]1(O)[C@H](O)[C@H](C(=O)N(C)OC)[C@@H](c3cccc(N)c3)[C@]1(c1ccc(C#N)cc1)O2 (racemic) [Racemate of compound 4]
MKN-45
  IC50: 1.4 nM
BT474; racemates
  IC50: 3.04 nM

## COc1ccc([C@@]23Oc4cc(-c5nc(CO)co5)cc(OC)c4[C@]2(O)[C@@H](N(C)C)C[C@H]3c2ccccc2)cc1 (racemic) [Racemate of compound 107]
DLD-1; racemates
  IC50: 0.92 nM

## COc1ccc([C@@]23Oc4cc(-c5ncco5)cc(OC)c4[C@]2(O)[C@@H](C#N)C[C@H]3c2cccc(N)c2)cc1 (racemic) [Racemate of compound 86]
HCC1954
  IC50: 2.15 nM
DLD-1; racemates
  IC50: 2.99 nM

## COc1cc(-c2ncc(C#N)cn2)cc2c1[C@]1(O)[C@H](O)[C@H](C(=O)N(C)OC)[C@@H](c3cccc(N)c3)[C@]1(c1ccc(C#N)cc1)O2 (racemic) [Racemate of compound 30]
MKN-45
  IC50: 1.5 nM

## COc1ccc([C@@]23Oc4cc(-c5ncco5)cc(OC)c4[C@]2(O)[C@H](O)C[C@H]3c2cccc(N)c2)cc1 (single isomer, unassigned) [Compound 49]
BT474; [1]
  IC50: < 10 nM
